Source: patent US20040053872A1, “New sequences” (priority 2000, published 2004)
pIC50: −log10 of the molar value. Where two headings read alike, the source gives them in different places. Strand notation (5' to 3'): a small letter for the sugar, then the base; units joined by * are phosphorothioate-linked, units joined directly phosphodiester-linked; [ ] holds rarer units or linkages, { } end groups; capitals alone tell only the bases. r = 2'-OH (RNA)

Tests used:
[1] = test system: panel of recombinant HIV 1 subtype B RTs; experiment: RT binding inhibition (BIC) assay, whole RT panel; conditions: all conditions studied
Procedure: (§1) (iii) Protocol for RT binding inhibition (BIC) assay: The study was performed in a modified DNA polymerase assay. The inhibitors were serially diluted in five steps, enzyme dilution was added and the enzyme/inhibitor mixtures were incubated for 30 minutes at 33° C. Aliquots of the enzyme/inhibitor mixture were transferred to each well of a microtiter plate containing either immobilised primer, or primer/template. The enzyme was allowed to bind to the immobilised polymer for 90 min at 33° C. The amount of RT used was standardised to an activity corresponding to 40-60 pg (3.3-5.0×10^−16 mol) reference HIV-1 RT per well. The plates were then washed to remove unbound enzyme whereupon the amount of bound enzyme was determined by addition of the appropriate reaction solution for polymerisation (i e a reaction solution devoid of primer for studies of primer binding and a reaction solution devoid of both primer and template for studies of binding to primed template). The polymerase reaction was allowed to proceed for 3 hours at 33° C., whereupon the reaction was terminated by a wash of the plate.
(§2) The capacity of the indicated substances to inhibit the binding to primer or to primed DNA template of a panel of recombinant HIV 1 subtype B RTs was studied according to “Protocol for RT binding inhibition (BIC) assay” (protocol (iii) above).

[2] = target: recombinant HIV-1 RT, ref RT (HIV type B, clone BH 10) (Human immunodeficiency virus type 1 group M subtype B, UniProt P03366); design: performed by recombinant HIV-1 RT:s with defined; conditions: immobilised primer/template, binding 90 min at 33° C., read-out: Inhibition of binding to template/primer (BIC50)
Procedure: as §1, §2

[3] = test system: panel of recombinant HIV 1 subtype B RTs; experiment: RT assay: inhibition of RNA dependent DNA polymerisation, whole RT panel; type: biochemical; conditions: for pIC50: all RTs of the panel, summary of table 1, read-out: IC50, range over all RTs studied (reverse transcription)
Procedure: (§3) The flourimetric RT assay (Cavidi® Lenti RT activity kit), available from Cavidi Tech, Uppsala, Sweden, was used for the determination of RT activity. In short, poly(rA) covalently bound to the wells of a 96 well microtiter plate serves as template for the incorporation of 5-bromodeoxyuridine 5′-triphosphate (BrdUTP) during the reverse transcription step at 33° C. The amount of bromodeoxyuridine monophosphate (BrdUMP) incorporated into DNA is detected with an alkaline phosphatase (Ap) conjugated, anti-BrdU monoclonal antibody. An Ap substrate, 4-methylumbelliferyl phosphate, is finally used for fluorimetric product detection.
(i) Protocol for determination of inhibition of RNA dependent DNA polymerisation: The inhibition studies were performed in a modified Lenti RT assay. […]
The final nucleotide substrate (BrdUTP) concentration was 0.35 μM, and the primer (odT22) amount was 0.03 ng per well.

[4] = target: T1, recombinant HIV-1 RT L100I (Human immunodeficiency virus type 1 group M subtype B, UniProt P03366, L699I); conditions: binding 90 min at 33° C.
T1 construct: performed by recombinant HIV-1 RT:s with defined
Procedure: as §1, §2

[5] = target: T2, recombinant HIV-1 RT K103N/E478Q (Human immunodeficiency virus type 1 group M subtype B, UniProt P03366, E1077Q/K702N); type: biochemical; conditions: second strand DNA synthesis, preincubation 30 minutes at 33° C., 3 hours, read-out: IC50 of indicated inhibitor in DNAp assay
T2 construct: performed by recombinant HIV-1 RT:s with defined
Description: (§4) The flourimetric DNA-polymerase assay used is available from Cavidi Tech AB, Uppsala, Sweden. It is based on a short DNA primer analogous to a part of the tRNA^Lys3 sequence. The template is a single stranded deoxynucleotide template with part of the sequence complementary to the primer. The enzyme reaction is dependent on all four deoxynucleotide bases. The thymidine triphosphate is, however, replaced by BrdUTP. The amount of BrdUMP incorporated into DNA during the polymerase reaction is detected with an alkaline phosphatase (Ap) conjugated anti-BrdU monoclonal antibody. An Ap substrate, 4-methylumbelliferyl phosphate, is finally used for fluorimetric product detection.
(§5) (ii) Protocol for determination of inhibition of second strand synthesis on a variable DNA template: The inhibition studies were performed in a modified DNA polymerase assay. The inhibitors were serially diluted in five steps, enzyme dilution was added and the enzyme/inhibitor mixtures were incubated for 30 minutes at 33° C. The enzyme reaction was initiated by addition of 75 μl aliquots of the enzyme/inhibitor mixture to each well of a microtiter plate containing 75 μl DNA polymerase reaction mixture per well. The polymerase reaction was allowed to proceed for 3 hours at 33° C. whereupon the reaction was terminated by a wash of the plate. […] The amount of RT used was standardised to an activity corresponding to 40-60 pg (3.3-5.0×10^−16 mol) reference HIV-1 RT per well.
(§6) The capacity of the indicated substances to inhibit each enzyme in a panel of recombinant HIV 1 subtype B RTs was studied according to “Protocol for determination of inhibition of second strand synthesis on variable DNA template” (protocol (ii) above).

[6] = target: T3, recombinant HIV-1 RT E478Q (Human immunodeficiency virus type 1 group M subtype B, UniProt P03366, E1077Q); type: biochemical; conditions: second strand DNA synthesis, preincubation 30 minutes at 33° C., 3 hours, read-out: IC50 of indicated inhibitor in DNAp assay
T3 construct: performed by recombinant HIV-1 RT:s with defined
Description: as §4, §5, §6

[7] = target: T1, recombinant HIV-1 RT L100I; type: biochemical; conditions: second strand DNA synthesis, preincubation 30 minutes at 33° C., 3 hours, read-out: IC50 of indicated inhibitor in DNAp assay
Description: as §4, §5, §6

[8] = target: T3, recombinant HIV-1 RT E478Q; experiment: RT assay: inhibition of RNA dependent DNA polymerisation (modified Lenti RT assay); type: biochemical; conditions: read-out: IC50 of indicated inhibitor in RT assay
Procedure: as §3
(i) Protocol for determination of inhibition of RNA dependent DNA polymerisation: The inhibition studies were performed in a modified Lenti RT assay. The inhibitors were serially diluted in five steps, whereupon enzyme dilution was added and the enzyme/inhibitor mixtures were incubated for 30 minutes at 33° C. The enzyme reaction was initiated by addition of 100 μl aliquots of the enzyme/inhibitor mixture to each well of a microtiter plate containing 100 μl RT reaction mixture per well. The polymerase reaction was allowed to proceed for 3 hours at 33° C., whereupon the reaction was terminated by a wash of the plate. […] The amount of RT used was standardised to an activity corresponding to 90-130 pg (7-10×10^−16 mol) reference HIV-1 RT per well
The capacity of the indicated substances to inhibit the enzymes in a panel of recombinant HIV 1 subtype B RTs was studied according to “Protocol for determination of inhibition of RNA dependent DNA polymerisation” (protocol (i) above). The final nucleotide substrate (BrdUTP) concentration was 0.35 μM, and the primer (odT22) amount was 0.03 ng per well.
The RT reaction time used was 3 hours and the results are depicted in FIG. 8 (A-C).

[9] = immobilised primer, read-out: Inhibition of binding to primer (BIC50)
[10] = enzyme/inhibitor preincubated 30 minutes at 33° C., BrdUTP 0.35 μM, odT22 0.03 ng per well, 3 hours

| Substance | Capacity to prevent RT binding to primer or primed template [1] | pIC50 [2] | pIC50 [3] | Results with inhibitor added directly to the RT reaction mixture compared with the standard procedure ([3]; alternative procedure without pre-incubation) | pIC50 [4, 9] | pIC50 [5] | pIC50 [6] | pIC50 [7] | pIC50 ([8]; RT and inhibitor added directly to the assay mixture without preincubation) | pIC50 [8, 10] | pIC50 ([4]; immobilised primer/template, read-out: Inhibition of binding to template/primer (BIC50)) |
| --- | --- | --- | --- | --- | --- | --- | --- | --- | --- | --- | --- |
| substance 199: 35-mer RNA molecule having the sequence set out in SEQ ID NO:5; similar to SEQ ID NO:4 with some naturally occurring nucleotide derivatives (GCUCAGNCGGNAGAGCANCAGACUUUUAANCUGAN; RNA, backbone, methylation of C and the base at N not given here; naturally occurring modified nucleosides at n positions) | had the capacity to prevent RT binding to either primer alone or to primed template | 8.15 | 7.92 to 8.22 | not significantly different | 8.15 | 7.29 | 7.47 | 7.44 | 7.96 | 8.22 | – |
| substance 198: 15-mer RNA phosphorothioate with the base sequence of tRNALys3 anticodon stem and loop, SEQ ID NO:7 (rC*rA*rG*rA*rC*rU*rU*rU*rU*rA*rA*rU*rC*rU*rG) [reference compound] | significantly less capacity to prevent RT binding | 6.05 | 5.96 to 6.47 | – | < 6.00 | 6.00 | 6.00 | 6.66 | – | 6.49 | < 6.00 |
